Key:
Type in all cases: cell-based, Rat
HircB cells = experiment: Cell counts of parental HircB cells after agonist treatment (FIG. 5); settings: 1 nM, four days of treatment
Experimental: (§1) The effect on cell growth was evaluated by plating either a HircB cells (as a control) or HircRXRα cells in 6 well plates with 0.5×10^5 cells per well in 10% FBS/DMEM/F12. The next day, the medium was replaced with a specified concentration of agonist, antagonist or both or with 0.1% DMSO in 10% FBS/DMEM/F12. Analyses were performed in triplicate.

HircRXRα cells [1] = experiment: HircRXRα cell growth by MTT assay (FIGS. 6 and 7); settings: five days of treatment, FIG. 6
Experimental: as §1
After incubation with agonist for 2 days, the change in cell number and morphology in the various HircRXRα cell samples were observed under the microscope. Alternatively, cell growth was measured using the MTT assay using absorbance at 590 nm. Mosmann, T., et al., J Immunol. Meth. (1983) 65:55-62.
FIGS. 6 and 7 show effects of RXRα ligands on HircRXRα cell growth as determined when cell growth was assessed by the MTT assay.

HircRXRα cells [2] = experiment: Cell growth of HircRXRα cells, direct microscopic observation; settings: 1 nM
Experimental: as §1
[…] Alternatively, cell growth was measured using the MTT assay using absorbance at 590 nm. Mosmann, T., et al., J Immunol. Meth. (1983) 65:55-62.

HircRXRα cells [3] = experiment: Cell counts of HircRXRα cells after agonist treatment (FIG. 5); settings: 1 nM, four days of treatment
Experimental: as §1

[4] = tested on: phosphorylated MEK in HircRXRα cells; experiment: Insulin stimulated phosphorylation of MEK in HircRXRα cells (Western blot, FIG. 8); settings: 100 nM insulin, 0-30 minutes
Experimental: (§2) They were then incubated for various periods in the presence of 100 nM insulin and then lysed. Solubilized cell proteins were subjected to SDS-PAGE and transferred to nitrocellulose and immunoblotted using antibodies specific to phosphorylated forms of MEK and MAP kinase.
(§3) FIGS. 8 and 9 show the results. […] In the left panel, the parental HircB cell line was tested for phosphorylated MEK in the solubilized protein at 0 minutes (lane 1), 5 minutes (lane 2), 15 minutes (lane 3) and 30 minutes (lane 4) after treatment with 100 nM insulin.

[5] = tested on: phosphorylated MAP-kinase in HircB cells; experiment: Insulin stimulated phosphorylation of MAP kinase in HircB cells (Western blot, FIG. 9); settings: 100 nM insulin, up to 90 minutes
Experimental: as §2
(§4) Similar results are shown in FIG. 9 with respect to the phosphorylation of MAP-kinase in response to insulin.

[6] = tested on: phosphorylated MAP-kinase in HircRXRα cells; experiment: Insulin stimulated phosphorylation of MAP kinase in HircRXRα cells (Western blot, FIG. 9); settings: 100 nM insulin, up to 90 minutes
Experimental: as §2, §4

[7] = tested on: phosphorylated MEK in HircB cells; experiment: Insulin stimulated phosphorylation of MEK in HircB cells (Western blot, FIG. 8); settings: 100 nM insulin, 0-30 minutes
Experimental: as §2, §3

Compound	effect on growth (cell counts) (HircB cells)	effect on cell growth (MTT assay) (HircRXRα cells [1]; 1 nM)	effect on cell growth (MTT assay) (HircRXRα cells [1]; 100 nM)	effect on cell growth (microscopic observation) (HircRXRα cells [2]; after four days)	effect on cell growth (microscopic observation) (HircRXRα cells [2]; after two days)	growth (cell counts) relative to no agonist (HircRXRα cells [3])	phosphorylated MEK after insulin treatment [4]	phosphorylated MAP-kinase after insulin treatment [5]	phosphorylated MAP-kinase after insulin treatment [6]	phosphorylated MEK after insulin treatment [7]
CC(/C=C/[C@@H]1C[C@]1(C)c1ccc2c(c1)C(C)(C)CCC2(C)C)=C\C(=O)O [AGN 4204]	no demonstrable effect	significant reduction in growth	further reduction in growth	the reduction in growth was maintained	greatly reduced growth	approximately one-third	–	–	–	–
insulin: insulin used at 100 nM to stimulate MEK and MAP kinase phosphorylation	–	–	–	–	–	–	less reduced after 30 minutes than in the HircB cell line	virtually gone after 90 minutes	substantially maintained over the 90-minute period	diminished considerably by 30 minutes

Source: patent publication US20030228632A1, “Stable RXR expressing cell line” (Allergan Sales, Inc., priority 2000, published 2003)
